Where “and” joins values, the source holds several entries; their conditions need not be identical. Equal values may be shown once. Inconclusive results and toxic doses are left out. Rule as the data show it: active = T/C of 150% or more; inactive = T/C below 125%.
Tested on: L1210 leukemia ip in BDF1 mice, survival T/C
Assay: NCI In Vivo Anticancer Drug Screen. Data for tumor model L1210 Leukemia (intraperitoneal) in B6D2F1 (BDF1) mice
Conditions: endpoint: mean survival time, higher = longer survival
In short: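 In this screen, tumor-bearing mice given compound are compared to those given vehicle, and their survival values are reported as a treated-to-control quotient.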

[1] = dose: 100.0 mg/kg/injection, schedule: Q01DX009 (ip), vehicle: saline with Tween-80
[2] = dose: 200.0 mg/kg/injection, schedule: Q01DX009 (ip), vehicle: saline with Tween-80
[3] = dose: 100.0 mg/kg/injection, schedule: Q01DX001 (ip), vehicle: saline
[4] = dose: 200.0 mg/kg/injection, schedule: Q01DX001 (ip), vehicle: saline
[5] = dose: 400.0 mg/kg/injection, schedule: Q01DX001 (ip), vehicle: saline
[6] = dose: 50.0 mg/kg/injection, schedule: Q01DX009 (ip), vehicle: acetone
[7] = dose: 100.0 mg/kg/injection, schedule: Q04DX003 (ip), vehicle: saline with Tween-80
[8] = dose: 200.0 mg/kg/injection, schedule: Q04DX003 (ip), vehicle: saline with Tween-80
[9] = dose: 400.0 mg/kg/injection, schedule: Q04DX003 (ip), vehicle: saline with Tween-80
[10] = dose: 50.0 mg/kg/injection, schedule: Q01DX001 (ip), vehicle: saline

Measured: T/C

CCCCCCCCCCCCCCCCCC(=O)OCC(O)COC(C)=O (centres undefined)
inactive: dose: 12.5 mg/kg/injection, schedule: Q01DX009 (ip), vehicle: saline with Tween-80 98 % of control | dose: 25.0 mg/kg/injection, schedule: Q01DX009 (ip), vehicle: saline with Tween-80 95 % of control | dose: 50.0 mg/kg/injection, schedule: Q01DX009 (ip), vehicle: saline with Tween-80 95 % of control | [1] 91 % of control | [2] 91 % of control

CCOC(=O)c1cnc(SCC)nc1SC#N
inactive: dose: 100.0 mg/kg/injection, schedule: Q01DX009 (ip), vehicle: gum acacia 105 % of control | dose: 100.0 mg/kg/injection, schedule: Q04DX003 (ip), vehicle: gum acacia 105 % of control | dose: 200.0 mg/kg/injection, schedule: Q01DX009 (ip), vehicle: gum acacia 106 % of control | dose: 200.0 mg/kg/injection, schedule: Q04DX003 (ip), vehicle: gum acacia 97 % of control | dose: 400.0 mg/kg/injection, schedule: Q01DX009 (ip), vehicle: gum acacia 97 % of control | dose: 400.0 mg/kg/injection, schedule: Q04DX003 (ip), vehicle: gum acacia 97 % of control

CN(C)CCSS(=O)(=O)O
inactive: [3] 93 % of control | [4] 96 % of control | [5] 102 % of control

CCc1ccc(C2=C(O)C(=O)C(c3ccccc3)=C(O)C2=O)cc1
inactive: dose: 12.5 mg/kg/injection, schedule: Q01DX009 (ip), vehicle: acetone 95 % of control | dose: 25.0 mg/kg/injection, schedule: Q01DX009 (ip), vehicle: acetone 90 % of control | dose: 33.0 mg/kg/injection, schedule: Q01DX009 (ip), vehicle: acetone 96 % of control | dose: 33.0 mg/kg/injection, schedule: Q01DX009 (ip), vehicle: saline 96 % of control | [6] 101 % of control | dose: 50.0 mg/kg/injection, schedule: Q01DX009 (ip), vehicle: saline 97 % of control | dose: 75.0 mg/kg/injection, schedule: Q01DX009 (ip), vehicle: acetone 118 % of control

CCN(CC)S(=O)(=O)CC
inactive: dose: 100.0 mg/kg/injection, schedule: Q04DX002 (ip), vehicle: saline with Tween-80 99 % of control | dose: 200.0 mg/kg/injection, schedule: Q04DX002 (ip), vehicle: saline with Tween-80 96 % of control | dose: 400.0 mg/kg/injection, schedule: Q04DX002 (ip), vehicle: saline with Tween-80 92 % of control

O=C1OCC/C1=C\NCCCN/C=C1\CCOC1=O
inactive: dose: 100.0 mg/kg/injection, schedule: Q04DX002 (ip), vehicle: Klucel (hydroxypropylcellulose) (HPC) 105 % of control | dose: 200.0 mg/kg/injection, schedule: Q04DX002 (ip), vehicle: Klucel (hydroxypropylcellulose) (HPC) 108 % of control | dose: 400.0 mg/kg/injection, schedule: Q04DX002 (ip), vehicle: Klucel (hydroxypropylcellulose) (HPC) 94 % of control

CC(C#N)OC(=O)c1ccccc1 (centres undefined)
inactive: dose: 8.75 mg/kg/injection, schedule: Q01DX009 (ip), vehicle: acetone 96 % of control | dose: 12.5 mg/kg/injection, schedule: Q01DX001 (ip), vehicle: saline 100 % of control | dose: 17.5 mg/kg/injection, schedule: Q01DX009 (ip), vehicle: acetone 95 % of control | dose: 25.0 mg/kg/injection, schedule: Q01DX001 (ip), vehicle: saline 105 % of control | dose: 35.0 mg/kg/injection, schedule: Q01DX009 (ip), vehicle: acetone 91 % of control | dose: 35.0 mg/kg/injection, schedule: Q04DX003 (ip), vehicle: saline 95 % of control | [6] 94 % of control

Nc1ccccn1
inactive: dose: 12.5 mg/kg/injection, schedule: Q04DX002 (ip), vehicle: saline 100 % of control | dose: 25.0 mg/kg/injection, schedule: Q04DX002 (ip), vehicle: saline 89 % of control

C=CCNC(=O)Oc1cccc(NC(=O)OC)c1
inactive: [7] 107 % of control | [8] 108 % of control | [9] 105 % of control

O=C(c1ccccc1)C1C(C(=O)c2ccccc2)C(c2ccccc2)N(c2ccccc2)C1c1ccccc1 (centres undefined)
inactive: [10] 94 % of control | [3] 94 % of control | [4] 97 % of control | [5] 105 % of control

CC(=O)c1cccc(N)c1
inactive: dose: 100.0 mg/kg/injection, schedule: Q01DX009 (ip), vehicle: Klucel (hydroxypropylcellulose) (HPC) 94 % of control | dose: 100.0 mg/kg/injection, schedule: Q04DX003 (ip), vehicle: saline 95 % of control | dose: 200.0 mg/kg/injection, schedule: Q01DX009 (ip), vehicle: Klucel (hydroxypropylcellulose) (HPC) 93 % of control | dose: 200.0 mg/kg/injection, schedule: Q04DX003 (ip), vehicle: saline 95 % of control | dose: 400.0 mg/kg/injection, schedule: Q01DX009 (ip), vehicle: Klucel (hydroxypropylcellulose) (HPC) 93 % of control | dose: 400.0 mg/kg/injection, schedule: Q04DX003 (ip), vehicle: saline 88 % of control

CCCCSSCCCC
inactive: dose: 50.0 mg/kg/injection, schedule: Q01DX001 (ip), vehicle: Klucel (hydroxypropylcellulose) (HPC) 94 % of control | dose: 100.0 mg/kg/injection, schedule: Q01DX001 (ip), vehicle: Klucel (hydroxypropylcellulose) (HPC) 102 % of control | dose: 200.0 mg/kg/injection, schedule: Q01DX001 (ip), vehicle: Klucel (hydroxypropylcellulose) (HPC) 105 % of control

CC(=O)Nc1c(C(N)=O)ncn1C1OC(COC(C)=O)C(OC(C)=O)C1OC(C)=O (centres undefined)
inactive: dose: 100.0 mg/kg/injection, schedule: Q01DX005 (ip), vehicle: saline 96 % of control | dose: 200.0 mg/kg/injection, schedule: Q01DX005 (ip), vehicle: saline 100 % of control

CN1CCC(OC(=O)C(F)(c2ccccc2)c2ccccc2)CC1
inactive: dose: 20.0 mg/kg/injection, schedule: Q01DX001 (ip), vehicle: saline 98 % of control

CNC(=S)N/N=C/C(C)=N/NC(=S)NC
inactive: dose: 4.0 mg/kg/injection, schedule: Q01DX Z (ip), vehicle: carboxymethylcellulose (CMC) 102 % of control | dose: 8.0 mg/kg/injection, schedule: Q01DX Z (ip), vehicle: carboxymethylcellulose (CMC) 97 % of control | dose: 10.0 mg/kg/injection, schedule: Q04DX003 (ip), vehicle: saline 98 % of control | dose: 16.0 mg/kg/injection, schedule: Q01DX Z (ip), vehicle: carboxymethylcellulose (CMC) 95 % of control and 103 % of control | dose: 20.0 mg/kg/injection, schedule: Q04DX003 (ip), vehicle: saline 100 % of control | dose: 31.0 mg/kg/injection, schedule: Q01DX Z (ip), vehicle: carboxymethylcellulose (CMC) 95 % of control | dose: 40.0 mg/kg/injection, schedule: Q04DX003 (ip), vehicle: saline 96 % of control | [10] 86 % of control | dose: 62.0 mg/kg/injection, schedule: Q01DX Z (ip), vehicle: carboxymethylcellulose (CMC) 93 % of control and 100 % of control | dose: 80.0 mg/kg/injection, schedule: Q04DX003 (ip), vehicle: saline 93 % of control | [3] 95 % of control | dose: 125.0 mg/kg/injection, schedule: Q01DX Z (ip), vehicle: carboxymethylcellulose (CMC) 90 % of control and 91 % of control | [4] 89 % of control | dose: 250.0 mg/kg/injection, schedule: Q01DX Z (ip), vehicle: carboxymethylcellulose (CMC) 93 % of control | [5] 95 % of control | dose: 500.0 mg/kg/injection, schedule: Q01DX Z (ip), vehicle: carboxymethylcellulose (CMC) 90 % of control | dose: 1000.0 mg/kg/injection, schedule: Q01DX Z (ip), vehicle: carboxymethylcellulose (CMC) 90 % of control | dose: 125.0 micrograms/kg/injection, schedule: Q01DX009 (ip), vehicle: saline 101 % of control | dose: 250.0 micrograms/kg/injection, schedule: Q01DX009 (ip), vehicle: saline 98 % of control | dose: 500.0 micrograms/kg/injection, schedule: Q01DX009 (ip), vehicle: saline 98 % of control | dose: 1000.0 micrograms/kg/injection, schedule: Q01DX009 (ip), vehicle: saline 107 % of control

CCN(CC)CCC(=O)c1cccs1
inactive: dose: 100.0 mg/kg/injection, schedule: Q01DX009 (ip), vehicle: saline 87 % of control | dose: 200.0 mg/kg/injection, schedule: Q01DX009 (ip), vehicle: saline 89 % of control

C#CC1(OCC2CN(c3ccccc3)C(=O)O2)CCCCC1 (centres undefined)
inactive: [1] 106 % of control | [7] 97 % of control | [2] 108 % of control | [8] 105 % of control | dose: 400.0 mg/kg/injection, schedule: Q01DX009 (ip), vehicle: saline with Tween-80 108 % of control | [9] 92 % of control

Reference: PubChem BioAssay AID248 (DTP/NCI, 2004)
